Marks after values point to notes of the source that are not given here.
Columns and labels:
[1] = molecular target: platelet activating factor receptor (PAFR) (Homo sapiens, UniProt P25105); conditions: cited from earlier work
[2] = Schussler et al. 1995; cited from earlier work
[3] = system: cAMP-specific phosphodiesterase; conditions: cited from earlier work
[4] = cited from earlier work
[5] = system: isolated rat hearts; test: Reperfusion-induced arrhythmias (VF, VT) in isolated hearts of orally treated rats, 30 min global ischemia and 2 hours reperfusion; assay type: in vivo; conditions: control 92%
Protocol: (§1) Male Sprague-Dawley rats were used for all studies. Rats were anesthetized with intraperitoneal pentobarbital sodium (60 mg/kg body weight) and then given intravenous heparin (500 IU/kg). After thoracotomy, the heart was excised and placed in ice cold perfusion buffer. Immediately after preparation, the aorta was cannulated, and the heart was perfused according to Langendorf method for a 5-min washout period at a constant perfusion pressure equivalent to 100 cm of water (10 kPa). The perfusion medium consisted of a modified Krebs-Henseleit bicarbonate buffer: 118 mM NaCl, 4.7 mM KCl, 1.7 mM CaCl2, 25 mM NaHCO3, 0.36 mM KH2PO4, 1.2 mM MgSO4, and 10 mM glucose. The left atrium was cannulated and the Langendorff system was switched to the working mode with a left atrial filling pressure of 17 cm of buffer (1.7 kPa) and aortic afterload pressure of 100 cm (10 kPa) of buffer. Aortic flow was measured by a calibrated rotameter, and coronary flow rate was measured by a timed collection of the coronary perfusate that dripped from the heart. After 10 min aerobic perfusion of the heart, the atrial inflow and aortic outflow lines were clamped at a point close to the origin of the aortic cannula. Reperfusion was initiated by unclamping the atrial inflow and aortic outflow lines. […] An epicardial ECG was recorded by a polygraph throughout the experimental period by two silver electrodes attached directly to the heart. ECGs were analyzed to determine the incidence of ventricular fibrillation (VF) and ventricular tachycardia (VT) and whether VF was non-sustained (spontaneously reverting to regular rhythm) or sustained (persisting through the first 3 min of reperfusion). After 3 min of ventricular fibrillation (sustained VF) hearts were defibrillated and myocardial function was recorded. The heart was considered to be in VF if an irregular undulating baseline was apparent on the ECG. […] In each instance, VT spontaneously switched to sinus rhythm or VF, therefore VT was considered non-sustained. The heart was considered to be in sinus rhythm if normal sinus complexes occurring in a regular rhythm were apparent on the ECG. Before ischemia and during reperfusion, heart rate (HR), coronary flow (CF) and aortic flow (AF) rates were registered. Left ventricular developed pressure (LVDP) which was defined as the difference between left ventricular systolic and end-diastolic pressure, and the first derivative of LVDP (+LVdp/dtmax) were also recorded (Experimetria, UK) by the insertion of a catheter into the left ventricle via the left atrium and mitral valve. […] Cardiac function data (HR, CF, AF, LVDP, and LVdp/dtmax), were expressed as the mean±SEM. One-way analysis of variance was first carried out, to test for any differences between the mean values of all groups. If differences were established, the values of the control, drug-free group were compared with those of the drug treated groups by a two-tailed t-test with the Bonferroni correction (Wallenstein et al., 1980, Circ. Res. 47:1-9). An analogue procedure was followed for distribution of discrete variables such as the incidence of VF and VT. An overall chi-square test for a 2×n table was constructed followed by a sequence of 2×2 chi-square tests to compare individual groups. A change of p<0.05 was considered significant.

[6] = system: isolated rat hearts; test: Cardiac function of isolated working hearts of orally treated rats, 30 min global ischemia followed by reperfusion; assay type: ex vivo
Protocol: as §1

[7] = FK506 1 mg/kg/day oral 10 days, after 30-min reperfusion
[8] = FK506 1 mg/kg/day oral 10 days, after 60-min reperfusion
[9] = FK506 1 mg/kg/day oral 10 days, after 120-min reperfusion
[10] = FK506 5 mg/kg/day oral 10 days, after 30-min reperfusion
[11] = FK506 5 mg/kg/day oral 10 days, after 60-min reperfusion
[12] = FK506 5 mg/kg/day oral 10 days, after 120-min reperfusion
[13] = FK506 10 mg/kg/day oral 10 days, after 30-min reperfusion
[14] = FK506 10 mg/kg/day oral 10 days, after 60-min reperfusion
[15] = FK506 10 mg/kg/day oral 10 days, after 120-min reperfusion
[16] = FK506 20 mg/kg/day oral 10 days, after 30-min reperfusion
[17] = FK506 20 mg/kg/day oral 10 days, after 60-min reperfusion
[18] = FK506 20 mg/kg/day oral 10 days, after 120-min reperfusion
[19] = FK506 40 mg/kg/day oral 10 days, after 30-min reperfusion
[20] = FK506 40 mg/kg/day oral 10 days, after 60-min reperfusion
[21] = FK506 40 mg/kg/day oral 10 days, after 120-min reperfusion

Sequence of platelet activating factor receptor (PAFR) (P25105 whole entry, species assumed): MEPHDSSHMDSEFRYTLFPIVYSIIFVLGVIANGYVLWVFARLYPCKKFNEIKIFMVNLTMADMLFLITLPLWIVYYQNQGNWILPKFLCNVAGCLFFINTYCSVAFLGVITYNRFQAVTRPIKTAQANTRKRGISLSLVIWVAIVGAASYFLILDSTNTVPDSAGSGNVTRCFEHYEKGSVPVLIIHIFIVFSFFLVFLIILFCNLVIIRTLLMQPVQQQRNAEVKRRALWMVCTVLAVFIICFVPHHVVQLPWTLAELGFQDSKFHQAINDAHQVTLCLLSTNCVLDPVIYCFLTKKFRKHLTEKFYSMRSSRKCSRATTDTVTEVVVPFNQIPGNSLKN

ginkgolide C
PAFR antagonist activity (in words) [1]: PAFR antagonist

C[C@@H]1C(=O)O[C@H]2C[C@@]34[C@H]5C[C@@H](C(C)(C)C)[C@]36[C@@H](OC(=O)[C@@H]6O)O[C@@]4(C(=O)O5)[C@]21O [Ginkgolide A]
PAFR antagonist activity (in words) [1]: PAFR antagonist

COc1ccc(NC(=S)N2CCc3c(sc4c3C(c3ccccc3Cl)=NCc3nnc(C)n3-4)C2)cc1 [BN 50730]
PAFR antagonistic activity compared to BN52021 ([1]; more potent than BN52021): up to several 10-fold

Ginkgolide J
PAFR antagonist activity (in words) [1]: PAFR antagonist activity

O=c1cc(-c2ccc(O)c(O)c2)oc2cc(O[C@@H]3O[C@H](CO)[C@@H](O)[C@H](O)[C@H]3O)cc(O)c12 [luteolin-7-glucoside]
cardioprotective effects [2]: 186%

C[C@@H]1C(=O)O[C@@H]2[C@H]1[C@@]13OC4OC(=O)[C@H](O)C45[C@H](C(C)(C)C)[C@@H](O)C(OC1=O)[C@]53[C@H]2O (some centres unmarked) [Ginkgolide M]
PAFR antagonist activity (in words) [1]: PAFR antagonist activity

COc1ccc(-c2cc(=O)c3c(O)cc(O)c(-c4cc(-c5cc(=O)c6c(O)cc(OC)cc6o5)ccc4OC)c3o2)cc1 [Sciadopitysin]
cAMP phosphodiesterase inhibitory activity (in words) [3]: almost inactive

C=CC[C@@H]1/C=C(\C)C[C@H](C)C[C@H](OC)[C@H]2O[C@@](O)(C(=O)C(=O)N3CCCC[C@H]3C(=O)O[C@H](/C(C)=C/[C@@H]3CC[C@@H](O)[C@H](OC)C3)[C@H](C)[C@@H](O)CC1=O)[C@H](C)C[C@@H]2OC [FK506, tacrolimus]
plasma concentrations ([4]; continuous intravenous infusion, severe acute GVHD): 25 to 35 ng/mL | blood levels ([4]; low doses (0.1 mg/kg or less)): ~10 ng/mL | fraction of treated patients with greater than 1 year graft survival ([4]; low doses (0.1 mg/kg or less)): > 70% | incidence of reperfusion-induced total (irreversible plus reversible) VF ([5]; FK506 1 mg/kg/day oral 10 days): 92% | incidence of reperfusion-induced total (irreversible plus reversible) VF ([5]; FK506 5 mg/kg/day oral 10 days): 83% | incidence of reperfusion-induced total (irreversible plus reversible) VF ([5]; FK506 10 mg/kg/day oral 10 days): 67% | incidence of reperfusion-induced total (irreversible plus reversible) VF ([5]; FK506 20 mg/kg/day oral 10 days): 33% | incidence of reperfusion-induced total (irreversible plus reversible) VF ([5]; FK506 40 mg/kg/day oral 10 days): 25% | +dP/dtmax [6, 7]: 422 ± 28 kPa/s | AF (aortic flow) [6, 7]: 10.6 ± 0.4 mL/min | CF (coronary flow) [6, 7]: 18.2 ± 1.0 mL/min | HR (heart rate) [6, 7]: 315 ± 9 beats/min | LVDP (left ventricular developed pressure) [6, 7]: 10.7 ± 0.6 kPa | +dP/dtmax [6, 8]: 447 ± 26 kPa/s | CF (coronary flow) [6, 8]: 16.9 ± 0.9 mL/min | HR (heart rate) [6, 8]: 306 ± 8 beats/min | LVDP (left ventricular developed pressure) [6, 8]: 11.9 ± 0.5 kPa | AF (aortic flow) ([6]; FK506 1 mg/kg/day oral 10 days, after 60-min reperfusion, 1 mg/kg/day): 10.9 ± 1.8 mL/min | AF (aortic flow) ([6]; FK506 1 mg/kg/day oral 10 days, after 60-min reperfusion, listed as FK 506, 1 mg/kg/day): 10.9 ± 0.6 mL/min | +dP/dtmax [6, 9]: 432 ± 17 kPa/s | AF (aortic flow) [6, 9]: 10.1 ± 0.6 mL/min | CF (coronary flow) [6, 9]: 17.5 ± 0.7 mL/min | HR (heart rate) [6, 9]: 302 ± 9 beats/min | LVDP (left ventricular developed pressure) [6, 9]: 11.2 ± 0.3 kPa | +dP/dtmax [6, 10]: 430 ± 34 kPa/s | AF (aortic flow) [6, 10]: 12.0 ± 0.9 mL/min | CF (coronary flow) [6, 10]: 18.0 ± 1.1 mL/min | HR (heart rate) [6, 10]: 298 ± 7 beats/min | LVDP (left ventricular developed pressure) [6, 10]: 11.0 ± 0.4 kPa | +dP/dtmax [6, 11]: 463 ± 23 kPa/s | AF (aortic flow) [6, 11]: 13.3 ± 1.0 mL/min | CF (coronary flow) [6, 11]: 18.4 ± 0.7 mL/min | HR (heart rate) [6, 11]: 282 ± 7 beats/min | LVDP (left ventricular developed pressure) [6, 11]: 12.0 ± 0.7 kPa | +dP/dtmax [6, 12]: 451 ± 32 kPa/s | AF (aortic flow) [6, 12]: 11.2 ± 0.8 mL/min | CF (coronary flow) [6, 12]: 18.1 ± 0.8 mL/min | HR (heart rate) [6, 12]: 279 ± 8 beats/min | LVDP (left ventricular developed pressure) [6, 12]: 11.5 ± 0.4 kPa | +dP/dtmax [6, 13]: 478 ± 44^a kPa/s | AF (aortic flow) [6, 13]: 12.0 ± 1.2 mL/min | CF (coronary flow) [6, 13]: 20.0 ± 1.4 mL/min | HR (heart rate) [6, 13]: 308 ± 8 beats/min | LVDP (left ventricular developed pressure) [6, 13]: 11.5 ± 0.5 kPa | +dP/dtmax [6, 14]: 472 ± 32 kPa/s | AF (aortic flow) [6, 14]: 13.3 ± 1.2 mL/min | CF (coronary flow) [6, 14]: 19.6 ± 1.2 mL/min | HR (heart rate) [6, 14]: 310 ± 9 beats/min | LVDP (left ventricular developed pressure) [6, 14]: 12.3 ± 0.7 kPa | +dP/dtmax [6, 15]: 463 ± 29 kPa/s | AF (aortic flow) [6, 15]: 11.4 ± 0.7 mL/min | CF (coronary flow) [6, 15]: 18.8 ± 0.7 mL/min | HR (heart rate) [6, 15]: 307 ± 7 beats/min | LVDP (left ventricular developed pressure) [6, 15]: 11.7 ± 0.6 kPa | +dP/dtmax [6, 16]: 536 ± 28^a kPa/s | AF (aortic flow) [6, 16]: 17.4 ± 0.8^a ml/min | CF (coronary flow) [6, 16]: 23.1 ± 1.1^a ml/min | HR (heart rate) [6, 16]: 298 ± 9 beats/min | LVDP (left ventricular developed pressure) [6, 16]: 13.5 ± 0.6^a kPa | +dP/dtmax [6, 17]: 544 ± 31^a kPa/s | AF (aortic flow) [6, 17]: 19.8 ± 1.5^a ml/min | CF (coronary flow) [6, 17]: 22.0 ± 1.1^a ml/min | HR (heart rate) [6, 17]: 297 ± 8 beats/min | LVDP (left ventricular developed pressure) [6, 17]: 14.1 ± 0.6^a kPa | +dP/dtmax [6, 18]: 519 ± 26^a kPa/s | AF (aortic flow) [6, 18]: 17.3 ± 1.1^a ml/min | CF (coronary flow) [6, 18]: 21.2 ± 1.1^a ml/min | HR (heart rate) [6, 18]: 295 ± 6 beats/min | LVDP (left ventricular developed pressure) [6, 18]: 13.2 ± 0.5^a kPa | +dP/dtmax [6, 19]: 557 ± 31^a kPa/s | AF (aortic flow) [6, 19]: 20.6 ± 1.3^a ml/min | CF (coronary flow) [6, 19]: 24.7 ± 1.5^a ml/min | HR (heart rate) [6, 19]: 291 ± 7 beats/min | LVDP (left ventricular developed pressure) [6, 19]: 14.1 ± 0.6^a kPa | +dP/dtmax [6, 20]: 594 ± 26^a kPa/s | AF (aortic flow) [6, 20]: 22.9 ± 2.1^a ml/min | CF (coronary flow) [6, 20]: 23.5 ± 0.8^a ml/min | HR (heart rate) [6, 20]: 286 ± 9 beats/min | LVDP (left ventricular developed pressure) [6, 20]: 15.3 ± 0.6^a kPa | +dP/dtmax [6, 21]: 568 ± 33^a kPa/s | AF (aortic flow) [6, 21]: 20.0 ± 1.8^a ml/min | CF (coronary flow) [6, 21]: 22.8 ± 1.8^a ml/min | HR (heart rate) [6, 21]: 289 ± 8 beats/min | LVDP (left ventricular developed pressure) [6, 21]: 14.6 ± 0.6^a kPa | change of preischemic HR, CF, AF, LVDP and +LVdP/dtmax (in words) ([6]; FK506 treatment, before ischemia, versus drug-free group): No significant changes
